From patent US20220064214A1, “NOVEL PEPTIDES AND USES THEREOF” (CENNA BIOSCIENCES INC., priority 2019, published 2022)
Where “and” joins values, the source holds several entries; their conditions need not be identical. Equal entries are not always repeated. Entries after “also recorded” stand apart in the source; their conditions may differ. Marks after values point to notes of the source that are not given here. Square brackets hold non-standard residues; d marks the D form. Peptide text beside a SMILES is read from it.

Experiments:
Aβ = test: Reduction of Aβ in retinal cells differentiated from iPSC derived from Alzheimer's disease patients; type: cell-based
Description: The accumulation of Aβ in the retina was studied in this example. Retinal cells were differentiated from induced pluripotent stem (iPSC) cells derived from Alzheimer's disease patients.

[1] = Pharmacokinetics study in rats, plasma; type: in vivo; settings: rat; for plasma concentration: individual rats
Procedure: (§1) An in-vivo study was carried out in rats to determine the pharmacokinetics (PK) of peptides P8, 8M1D and 8M2D in plasma and CSF. Each peptide was assessed through two dosage routes, intravenous (IV) and subcutaneous (SC). Three rats were assigned to each dose group with each peptide. Total of twelve rats per peptide were used.
(§2) Blood was collected through jugular vein cannulas, and the samples were collected into tubes with K2EDTA. After centrifuging at a temperature of 2 to 8° C. at 4,000×g for 5 minutes, the resulting plasma was split into equal aliquots, frozen, and stored at −60 to −80° C. One aliquot was for PK analysis and the other was for Aβ analysis (see Example 4).

Aβ40 = test: Efficacy in reducing Aβ40 in rat plasma (ELISA); type: in vivo; settings: for reduction in Aβ40 / Percent Decrease in Aβ 40 in Rat Plasma: 10 mg/kg SC; for Percent Decrease in Aβ 40 in Rat Plasma: mean of 3 rats, negative = decrease
Procedure: as §2
Rats (n=3 per peptide) were administered with P8, 8M1D, or 8M2D (10 mg/kg) subcutaneously, and plasma were collected at 0, 6, 12, and 24 h after dosing and Aβ40 analysis was carried out by ELISA (Invitrogen).

[2] = Delivery to brain in transgenic mice (brain concentrations); type: in vivo; design: Brain Concentration / Brain Concentration, Mean: unit not given here
Procedure: Critical to the development of any therapeutic for diseases like AD is the requirement that it can be delivered to the brain. Delivery to brain and efficacy of P8 and 8M2D in reducing Aß was analyzed in the transgenic mice described in Section 6.3 above. […]

[3] = Pharmacokinetics study in rats, CSF; type: in vivo; design: CSF concentration, Mean IV / CSF concentration, Mean SC: unit not given here; settings: rat; for CSF concentration, Mean IV: 10 mg/kg IV; for CSF concentration, Mean SC: 10 mg/kg SC
Procedure: as §1
CSF collection was performed by first anesthetizing animals at specified time points (see Table 5) with a mixture of 80 mg/kg ketamine and 8 mg/kg xylazine. The depth of anesthesia was monitored by toe pinches. CSF was collected via the cisterna magna (˜0.05 mL), and it was split into equal aliquots, frozen, and stored at −60 to −80° C.

CC(=O)N[C@H](CC(=O)O)C(=O)N[C@@H](CCC(=O)O)C(=O)N[C@@H](CCC(=O)O)C(=O)N[C@@H](CCC(=O)O)C(=O)N[C@@H](CC(=O)O)C(=O)N[C@@H](CCC(=O)O)C(=O)N[C@@H](CCC(=O)O)C(=O)N[C@@H](CC(C)C)C(N)=O [8M2D, Ac-dEEEDEEL-NH2] (Ac-[dD]EEEDEEL-NH2)
production of Aβ in retinal cells in the presence of the peptide (in words) (Aβ): reduced | time after dosing at which detectable in plasma ([1]; 10 mg/kg IV and SC): ≥ 6 h | exposure in plasma compared with P8 (in words) ([1]; 10 mg/kg IV and SC, at Cmax and most subsequent time points): better exposures than P8 | plasma concentration ([1]; 10 mg/kg IV, 0 hr (pre-dose)): BQL | plasma concentration ([1]; 10 mg/kg IV, 0.167 hr, 10 mg/kg, in ng/mL (unit assumed)): 20,900 and 21,000 and 23,400 | plasma concentration ([1]; 10 mg/kg IV, 0.5 hr, 10 mg/kg, in ng/mL (unit assumed)): 5,620 and 5,680 and 5,940 | plasma concentration ([1]; 10 mg/kg IV, 1 hr, 10 mg/kg, in ng/mL (unit assumed)): 1,450 and 1,040 and 1,190 | plasma concentration ([1]; 10 mg/kg IV, 2 hr, 10 mg/kg, in ng/mL (unit assumed)): 417 and 114 and 136 | plasma concentration ([1]; 10 mg/kg IV, 4 hr, 10 mg/kg): 10.2 and 7.54 ^b and 8.29 ^b | plasma concentration ([1]; 10 mg/kg IV, 6 hr, 10 mg/kg): 2.09 ^b and 1.81 ^b and BQL | plasma concentration ([1]; 10 mg/kg IV, 8 hr): BQL | plasma concentration ([1]; 10 mg/kg IV, 12 hr): BQL | plasma concentration ([1]; 10 mg/kg IV, 24 hr): BQL | plasma concentration ([1]; 10 mg/kg SC, 0 hr (pre-dose)): BQL | plasma concentration ([1]; 10 mg/kg SC, 0.167 hr, 10 mg/kg, in ng/mL (unit assumed)): 16,200 and 13,500 and 13,800 ^a | plasma concentration ([1]; 10 mg/kg SC, 0.5 hr, 10 mg/kg, in ng/mL (unit assumed)): 9,030 and 9,010 and 7,190 | plasma concentration ([1]; 10 mg/kg SC, 1 hr, 10 mg/kg, in ng/mL (unit assumed)): 3,250 and 4,160 and 3,110 | plasma concentration ([1]; 10 mg/kg SC, 2 hr, 10 mg/kg, in ng/mL (unit assumed)): 609 and 987 and 1,040 | plasma concentration ([1]; 10 mg/kg SC, 4 hr, 10 mg/kg, in ng/mL (unit assumed)): 59.2 and 82.8 and 125 | plasma concentration ([1]; 10 mg/kg SC, 6 hr, 10 mg/kg): 3.77 ^b and 9.84 ^b and 21.6 | plasma concentration ([1]; 10 mg/kg SC, 8 hr, 10 mg/kg): 1.61 ^b and 4.37 ^b and 5.19 ^b | plasma concentration ([1]; 10 mg/kg SC, 12 hr): BQL | plasma concentration ([1]; 10 mg/kg SC, 24 hr): BQL | reduction in Aβ40 (Aβ40; rat plasma, 12 hr post dosing): about 35% | reduction in Aβ40 (Aβ40; rat plasma, 24 h post dosing): about 27% | reduction of Aβ40 compared with the other peptides (in words) (Aβ40; rat plasma, SC): more potent than P8 and 8M1D; also recorded: more effectively than P8 and 8M1D | Percent Decrease in Aβ 40 in Rat Plasma (Aβ40; 0 h): 0.00% | Percent Decrease in Aβ 40 in Rat Plasma (Aβ40; 6 h): −26.62% | Percent Decrease in Aβ 40 in Rat Plasma (Aβ40; 12 h): −35.27% | Percent Decrease in Aβ 40 in Rat Plasma (Aβ40; 24 h): −27.36% | delivery to the APPTg mouse brain (in words) ([2]; SC administration): in sufficient amounts to reduce Aß in the brain | Brain Concentration ([2]; transgenic mice, SC, dose 10 mg/kg, individual animals): BQL | Brain Concentration, Mean ([2]; transgenic mice, SC, dose 50 mg/kg, N 2): 9.06 | Brain Concentration, Mean ([2]; transgenic mice, SC, dose 250 mg/kg, N 5): 15.4 | exposure in CSF compared with P8 (in words) ([3]; 10 mg/kg IV and SC, at Cmax and most subsequent time points, 10 mg/kg): better exposures than P8; also recorded: higher exposure than P8 | CSF concentration, Mean IV ([3]; 0 hr): 0 | CSF concentration, Mean IV ([3]; 0.5 hr): 104 | CSF concentration, Mean IV ([3]; 1 hr): 55.6 | CSF concentration, Mean IV ([3]; 2 hr): 68 | CSF concentration, Mean IV ([3]; 4 hr): 11.5 | CSF concentration, Mean IV ([3]; 8 hr): 1.75 | CSF concentration, Mean IV ([3]; 12 hr): 0.378 | CSF concentration, Mean IV ([3]; 24 hr): 1.2 | CSF concentration, Mean SC ([3]; 0 hr): 0 | CSF concentration, Mean SC ([3]; 0.5 hr): 59 | CSF concentration, Mean SC ([3]; 1 hr): 53.4 | CSF concentration, Mean SC ([3]; 2 hr): 172 | CSF concentration, Mean SC ([3]; 4 hr): 13.3 | CSF concentration, Mean SC ([3]; 8 hr): 15.3 | CSF concentration, Mean SC ([3]; 12 hr): 0.113 | CSF concentration, Mean SC ([3]; 24 hr): 0
